From paper PMC10870240 (Chembiochem : a European journal of chemical biology, 2023)

Molecular target: full-length CBP (Homo sapiens, UniProt Q92793)
Assay: cellular thermal shift assay
Assay type: biochemical
Conditions: 25 μM garcinolic acid, MV4-11 nuclear extract

full-length CBP, sequence (Q92793 2-2442): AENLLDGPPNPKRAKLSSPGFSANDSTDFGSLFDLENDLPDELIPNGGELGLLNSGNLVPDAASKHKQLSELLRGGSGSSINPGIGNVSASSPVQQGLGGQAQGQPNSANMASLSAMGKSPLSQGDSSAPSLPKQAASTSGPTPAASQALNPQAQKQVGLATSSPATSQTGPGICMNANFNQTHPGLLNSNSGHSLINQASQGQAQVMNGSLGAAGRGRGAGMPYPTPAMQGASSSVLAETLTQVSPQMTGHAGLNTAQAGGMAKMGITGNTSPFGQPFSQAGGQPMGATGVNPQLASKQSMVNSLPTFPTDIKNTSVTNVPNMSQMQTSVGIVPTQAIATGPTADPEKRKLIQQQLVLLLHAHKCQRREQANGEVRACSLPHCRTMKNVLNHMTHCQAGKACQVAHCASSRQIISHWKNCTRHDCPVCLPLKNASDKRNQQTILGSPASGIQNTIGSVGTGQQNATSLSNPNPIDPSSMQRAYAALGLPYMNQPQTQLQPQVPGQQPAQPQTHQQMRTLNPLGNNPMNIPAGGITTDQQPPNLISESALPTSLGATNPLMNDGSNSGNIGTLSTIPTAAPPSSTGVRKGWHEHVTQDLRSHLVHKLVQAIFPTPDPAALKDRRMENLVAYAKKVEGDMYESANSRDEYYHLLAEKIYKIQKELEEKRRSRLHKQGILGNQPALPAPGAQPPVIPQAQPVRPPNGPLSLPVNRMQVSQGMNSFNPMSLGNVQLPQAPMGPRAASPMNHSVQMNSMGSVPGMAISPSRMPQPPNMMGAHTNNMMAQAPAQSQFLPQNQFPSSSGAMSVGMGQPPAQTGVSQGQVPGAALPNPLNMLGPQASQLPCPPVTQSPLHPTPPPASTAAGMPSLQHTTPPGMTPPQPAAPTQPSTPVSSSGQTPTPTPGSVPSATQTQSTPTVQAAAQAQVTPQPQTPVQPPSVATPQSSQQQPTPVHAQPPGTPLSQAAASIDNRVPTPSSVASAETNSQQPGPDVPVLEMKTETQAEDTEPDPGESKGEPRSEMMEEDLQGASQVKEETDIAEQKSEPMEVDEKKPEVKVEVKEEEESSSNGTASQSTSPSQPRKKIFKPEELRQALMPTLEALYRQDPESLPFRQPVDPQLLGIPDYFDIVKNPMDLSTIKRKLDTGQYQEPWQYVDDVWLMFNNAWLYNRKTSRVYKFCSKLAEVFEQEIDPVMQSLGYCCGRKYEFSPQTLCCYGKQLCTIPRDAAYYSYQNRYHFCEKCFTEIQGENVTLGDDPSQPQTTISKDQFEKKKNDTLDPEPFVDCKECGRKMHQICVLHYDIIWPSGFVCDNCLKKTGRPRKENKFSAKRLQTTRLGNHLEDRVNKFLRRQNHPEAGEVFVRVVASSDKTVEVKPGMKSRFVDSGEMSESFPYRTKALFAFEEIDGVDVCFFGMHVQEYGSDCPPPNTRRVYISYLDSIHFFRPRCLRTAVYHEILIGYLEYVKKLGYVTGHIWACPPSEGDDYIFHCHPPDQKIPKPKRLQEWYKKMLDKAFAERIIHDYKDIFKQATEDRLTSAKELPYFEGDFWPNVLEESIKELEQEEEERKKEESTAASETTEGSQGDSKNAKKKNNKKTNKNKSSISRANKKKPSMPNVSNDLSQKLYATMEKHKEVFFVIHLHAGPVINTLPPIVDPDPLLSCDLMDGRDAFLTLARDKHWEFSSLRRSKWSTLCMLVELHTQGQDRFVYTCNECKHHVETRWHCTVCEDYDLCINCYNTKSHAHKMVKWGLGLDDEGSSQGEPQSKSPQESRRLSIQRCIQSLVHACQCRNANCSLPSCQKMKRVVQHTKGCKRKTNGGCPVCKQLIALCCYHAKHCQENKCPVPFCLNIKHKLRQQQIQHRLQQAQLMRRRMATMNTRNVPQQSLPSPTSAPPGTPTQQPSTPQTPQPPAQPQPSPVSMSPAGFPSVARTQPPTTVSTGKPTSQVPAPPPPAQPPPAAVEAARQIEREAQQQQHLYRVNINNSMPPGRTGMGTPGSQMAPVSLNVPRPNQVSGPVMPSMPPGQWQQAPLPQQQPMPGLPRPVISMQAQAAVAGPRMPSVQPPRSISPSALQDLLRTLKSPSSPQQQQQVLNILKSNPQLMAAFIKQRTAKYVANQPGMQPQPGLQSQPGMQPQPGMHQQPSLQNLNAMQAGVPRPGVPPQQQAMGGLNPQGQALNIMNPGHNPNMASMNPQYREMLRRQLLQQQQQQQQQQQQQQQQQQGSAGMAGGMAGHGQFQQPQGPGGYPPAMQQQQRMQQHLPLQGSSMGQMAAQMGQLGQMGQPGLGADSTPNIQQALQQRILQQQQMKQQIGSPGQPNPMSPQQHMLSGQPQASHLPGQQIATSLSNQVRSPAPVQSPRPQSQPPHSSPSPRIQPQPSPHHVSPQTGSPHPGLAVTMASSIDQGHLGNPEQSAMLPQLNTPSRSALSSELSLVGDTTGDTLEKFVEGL

SMILES: CC(C)=CCCC1(C)C=Cc2c(O)c3c(c(CC=C(C)C)c2O1)OC12C(=CCCC1C(C)(C)O[C@@]2(C/C=C(\C)C(=O)O)C(=O)O)C3=O (stereo partly shown) [garcinolic acid]
- cellular thermal shift assay (Western blot): intact CBP is still observed in the garcinolic acid treated samples
